This note sets out measurements from PubChem BioAssay AID434951 (Broad Institute, 2010).

As usually defined, the EC50 is the concentration giving half of the maximal effect.

Active and inactive are the calls of the source.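 How the source made its calls: active means a fitted half-maximal concentration EC50 for the rise in nuclear signal no higher than ten times the top dose tested; inconclusive means flat fit with activity between 30% and 70%, or unusable fit; inactive means EC50 beyond ten times the top dose.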 Bounds are passed on as bounds.

Chain of Hypoxia-inducible factor 1-alpha (Homo sapiens) (Q16665 whole entry, looked up): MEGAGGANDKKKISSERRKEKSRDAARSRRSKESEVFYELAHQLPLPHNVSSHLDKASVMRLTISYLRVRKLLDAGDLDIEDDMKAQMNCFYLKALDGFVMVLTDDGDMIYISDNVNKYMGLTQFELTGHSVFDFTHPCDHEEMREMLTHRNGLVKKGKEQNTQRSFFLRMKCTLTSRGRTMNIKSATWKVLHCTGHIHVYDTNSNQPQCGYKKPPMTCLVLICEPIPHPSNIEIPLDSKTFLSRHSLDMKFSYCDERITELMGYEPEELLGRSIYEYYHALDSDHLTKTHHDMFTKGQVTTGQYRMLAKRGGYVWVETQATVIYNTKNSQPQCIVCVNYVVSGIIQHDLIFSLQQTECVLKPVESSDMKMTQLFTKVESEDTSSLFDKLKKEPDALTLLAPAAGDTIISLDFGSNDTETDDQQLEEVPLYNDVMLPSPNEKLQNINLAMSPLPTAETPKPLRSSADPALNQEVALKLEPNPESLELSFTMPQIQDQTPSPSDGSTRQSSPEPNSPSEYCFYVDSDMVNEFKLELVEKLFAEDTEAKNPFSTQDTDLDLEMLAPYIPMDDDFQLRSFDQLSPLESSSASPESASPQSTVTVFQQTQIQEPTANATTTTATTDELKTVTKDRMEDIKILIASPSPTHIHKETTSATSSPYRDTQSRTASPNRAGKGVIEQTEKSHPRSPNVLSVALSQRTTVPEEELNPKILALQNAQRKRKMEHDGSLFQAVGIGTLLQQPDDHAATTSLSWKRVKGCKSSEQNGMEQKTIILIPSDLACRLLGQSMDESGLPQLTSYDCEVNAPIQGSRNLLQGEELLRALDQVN

This test has as its target Hypoxia-inducible factor 1-alpha (Homo sapiens) (UniProt Q16665). The test is described as follows: HIF pathway activation, GFP-HIF1alpha translocation – imaging, fluorescence, U2OS GFP-HIF1alpha, confirmation (AID 434951). Particulars: U2OS GFP-HIF1alpha nuclear intensity, high-content imaging.
As to `Cc1ccc(C)c(-n2nnnc2Sc2nnnn2-c2ccccc2)c1`, the EC50 is > 35 µM (inactive).
In the case of `COc1ccc2nc(NC(=O)CSc3nccc(C)n3)sc2c1`, the EC50 is > 35 µM (inactive).
As for `COc1ccccc1-c1cc(C(F)(F)F)nc(S(=O)(=O)CCCC(=O)NCc2ccc(F)cc2)n1`, the figure is 9.53 µM.
On to `COc1ccc(C(=O)NCCCOC(=O)c2ccc(OC)cc2)cc1`, for which the EC50 is > 35 µM (inactive).
The result for `O=C(c1ccc(-c2nnc(-c3ccccc3)o2)cc1)N1CCCCCC1` reads > 35 µM (inactive); that for `O=C1CCCc2ccccc2N1Cc1ccc(F)cc1`, > 35 µM (inactive); that for `CCOC(=O)N1CCN(c2ccc(Cl)c(Cl)c2)CC1`, > 35 µM (inactive).
The result for `CCOc1cccc(-c2c(C(=O)N/N=C/c3ccc(Br)cc3)nnn2-c2nonc2N)c1` reads > 35 µM (inactive); that for `COc1ccc(N=C2C(=O)N3CCCc4cccc2c43)cc1`, > 35 µM (inactive); that for `COc1cc(SC)ccc1C(=O)Nc1ccc(C)cc1C`, > 35 µM (inactive).
For the compound `O=C(NCCSc1c[nH]c2ccccc12)c1ccc(Br)o1`, the EC50 was > 35 µM (inactive).
As for `O=C(c1cccc(C(F)(F)F)c1)C1CCCN(C(=O)Cn2cncn2)C1` (stereo unspecified), the figure is > 35 µM (inactive).
On to `Cc1cc(OC(C)C(=O)NNC(=O)Nc2ccc(F)cc2F)cc(C)c1Cl` (stereo unspecified), for which the EC50 is > 35 µM (inactive).
As to `Oc1ccc(-c2cn3ccccc3n2)cc1O`, the EC50 is > 35 µM (inactive).
The result for `c1ccc(CSC2=NNC(c3ccccn3)S2)cc1` (stereo unspecified) reads 18.6 µM; that for `COc1ccc(NC(=S)c2ccc(N(C)C)cc2)cc1`, > 35 µM (inactive); that for `CCCCC(=O)Nc1ccc(NC(=O)CC)cc1OC`, > 35 µM (inactive).
The result for `CCC1Oc2ccccc2N(CC(=O)Nc2ccccc2OC)C1=O` (stereo unspecified) reads > 35 µM (inactive); that for `CCC1CCCCN1Cc1c(O)ccc2c(=O)c(-c3ccccc3OC)coc12` (stereo unspecified), > 35 µM (inactive).
The result for `C/C(=N\Nc1nc2ccccc2[nH]1)c1ccccn1` reads 1.8 µM.
Regarding `O=C(CCN1C(=O)S/C(=C\c2ccc(F)cc2)C1=O)Nc1ccc(C(=O)O)c(O)c1`, the EC50 is > 35 µM (inactive).
As to `COC(=O)c1ccc(C(C(=O)NCc2ccccc2)N(Cc2ccco2)C(=O)c2cnccn2)cc1` (stereo unspecified), the EC50 is > 35 µM (inactive).
In the case of `Nc1ccnn1-c1ccccc1`, the EC50 is > 35 µM (inactive).
As for `O=C(Nc1nc2c(F)cc(F)cc2s1)c1ccccn1`, the figure is 5.5 µM; as for `CC/C(=N\N1CCCCCC1)c1c(O)n(-c2ccc(C)cc2)c(=O)[nH]c1=O`, > 35 µM (inactive).
On to `Cc1ccc(C(=O)Nc2c3c(nn2C(C)(C)C)CS(=O)(=O)C3)cc1C`, for which the EC50 was > 35 µM (inactive).
As for `c1ccc(CSc2ccc(-c3ccccn3)nn2)cc1`, the 50% effective concentration (EC50) is 5.92 µM.
Turning to `CC(C)c1ccc(N(C(=O)c2snc(C(N)=O)c2N)C(C(=O)NC2CCCC2)c2ccncc2)cc1` (stereo unspecified), the concentration giving a half-maximal response (EC50) is 21.4 µM.
On to `CC(C)C(=O)NC(c1cccc([N+](=O)[O-])c1)c1ccc2cccnc2c1O` (stereo unspecified), for which the EC50 is 2.3 µM.
As for `Cc1cc(C)n(-c2nc3ccccc3c(=O)n2OCC#N)n1`, the figure is 11.4 µM; as for `Cc1nc2ccccc2c(=O)n1/N=C/c1ccc2ccccc2c1O`, 22.2 µM.
For `COc1ccc(N2CCN(C(=O)CN(C)S(=O)(=O)c3cc(C)ccc3OC)CC2)cc1`, the EC50 was > 35 µM (inactive).
Regarding `Cc1nnc(N/N=C/c2ccccn2)[nH]c1=O`, the half-maximal effective concentration (EC50) was 5.75 µM.
As for `O=C(CNC(=O)C(c1ccccc1)c1ccccc1)N/N=C/c1ccc(O)cc1O`, the figure is > 35 µM (inactive).
For the compound `COc1ccc(NC(=O)CCS(=O)(=O)c2ccc3c(c2)CCN3C(C)=O)cc1`, the EC50 is > 35 µM (inactive).
As for `COCc1c(C(=O)N/N=C(\C)c2ccc(Cl)s2)nnn1-c1nonc1N`, the figure is > 35 µM (inactive); as for `O=C(NS(=O)(=O)c1ccc2c(c1)OCCO2)c1ccccc1`, > 35 µM (inactive); as for `COc1ccc(C(=O)Nc2ccccc2C(=O)N/N=C/c2ccccn2)cc1OC`, 10.6 µM.
For the compound `Fc1cccc(/C=N/Nc2nccnc2Cl)c1`, the EC50 is > 35 µM (inactive).
As to `C=CCc1cccc(/C=N/NC(=O)c2ccc3nc[nH]c3c2)c1O`, the EC50 was 34.6 µM.
As for `CC(C)=NOC(=O)c1c(C)noc1-c1snnc1C`, the figure is > 35 µM (inactive); as for `OCc1ccc(N=Nc2ccccc2)cc1`, > 35 µM (inactive); as for `CCC(=O)N1CCN(c2nc3ccc(Br)cc3s2)CC1`, > 35 µM (inactive).
The result for `CNc1c2c(nn1C)CCCC2` reads > 35 µM (inactive); that for `COc1ccc(C(NC(=O)C(C)C)c2ccc3cccnc3c2O)cc1` (stereo unspecified), 2.66 µM; that for `O=c1[nH]c(C2CCN(S(=O)(=O)c3ccc(C(F)(F)F)cc3)CC2)nc2c1nnn2Cc1ccc(F)cc1`, > 35 µM (inactive).
The result for `COc1ccc(N(CC(=O)Nc2cc(OC)ccc2OC)S(=O)(=O)c2c(C)noc2C)cc1` reads > 35 µM (inactive).
`CN(CC(=O)Nc1ccc(S(=O)(=O)N2CCCC2)cc1)CC(=O)Nc1cccc(F)c1`: the EC50 is > 35 µM (inactive).
In the case of `CC(=O)c1ccc(N(C(=O)c2csnn2)C(C(=O)NC(C)(C)C)c2cccs2)cc1` (stereo unspecified), the EC50 is > 35 µM (inactive).
Regarding `Cc1ccc(-c2cc(C(=O)Nc3cccnc3)[nH]n2)c(O)c1C`, the EC50 was > 35 µM (inactive).
In the case of `CC(C)NC(=S)NN=C1c2ccccc2-c2ccccc21`, the EC50 was > 35 µM (inactive).
`COc1ccc2cc(C(C)C(=O)N3CCC(C(N)=O)CC3)ccc2c1` (stereo unspecified): the EC50 is > 35 µM (inactive).
`Cc1cc(Br)cc(/C=N/NC(=O)c2ccc3c(c2)OCO3)c1O`: the EC50 is 6.26 µM.
Consider `COc1cc2c(cc1OC)C(c1ccccc1)N(S(C)(=O)=O)CC2` (stereo unspecified), for which the EC50 is > 35 µM (inactive).
The result for `O=C(N/N=C/c1cc(Br)ccc1O)c1cccc(N2CCCC2=O)c1` reads 13.5 µM.
On to `CCOc1cc(/C=N/NC(=O)c2cccnc2)ccc1OCc1ccc(C(=O)OC)o1`, for which the EC50 is > 35 µM (inactive).
As for `COc1cc(C(=O)NCCc2nc3ccccc3n2C)cc(OC)c1OC`, the figure is > 35 µM (inactive); as for `CCOP(=O)(C#CC(C)(C)C)C1(O)CCCCC1` (stereo unspecified), > 35 µM (inactive); as for `CC(C)[C@H](NC(=O)c1ccco1)C(=O)OCc1cc(=O)n2c(n1)sc1ccccc12`, > 35 µM (inactive).
The result for `CCCCC(=O)N1CCN(c2nc3ccc(F)cc3s2)CC1` reads > 35 µM (inactive); that for `CS(=O)(=O)c1ccc2nc(NC(=O)C3CC(=O)N(c4ccc(F)cc4)C3)sc2c1` (stereo unspecified), > 35 µM (inactive).
The result for `CCOC(=O)c1cnc(-n2nc(C)cc2C)nc1NNc1nc(-c2ccccc2)cc(-c2ccccc2)n1` reads 1.81 µM.
Turning to `CCN(CC)c1ccc(/C=N/NC(=O)c2nnn(-c3nonc3N)c2C(C)C)c(O)c1`, the half-maximal effective concentration (EC50) is 3.55 µM.
The result for `CNNC(=O)C(C)NC(=O)c1ccc(Br)cc1` (stereo unspecified) reads > 35 µM (inactive); that for `O=C(COC(=O)c1ccccc1Nc1ccccc1)NCc1ccccc1Cl`, > 35 µM (inactive); that for `Oc1ccc(CN2CCc3ccccc3C2)c2cccnc12`, 2.4 µM.
The result for `CC(=O)Nc1sc(-c2ccccc2)nc1-c1ccccc1` reads > 35 µM (inactive).
As for `O=C1NC(=O)/C(=C/c2ccc(OS(=O)(=O)c3ccc(F)cc3F)cc2)N1`, the figure is > 35 µM (inactive); as for `CCc1cc(C(=O)N/N=C/c2ccc(O)cc2O)c2ccccc2n1`, 17.5 µM.
Regarding `COc1ccc(CNC(=S)N/N=C/c2ccc(O)c(OC)c2)cc1`, the EC50 is > 35 µM (inactive).
As for `CC(C)(C)NC(=O)CN(Cc1ccc2c(c1)OCO2)C(=O)CNS(=O)(=O)c1ccc(F)cc1`, the figure is > 35 µM (inactive); as for `CCC(=O)n1nc(NCc2ccc(OC)c(OC)c2)nc1NCc1ccc(OC)c(OC)c1`, > 35 µM (inactive); as for `CN1CCN(Cc2cc(COCc3ccccc3)c3cccnc3c2O)CC1`, 7.82 µM.
For `COc1ccc(-c2nc(C#N)c(N3CCN(C(=O)c4ccco4)CC3)o2)cc1OC`, the EC50 is > 35 µM (inactive).
Turning to `O=C(O)c1ccc2cccc(O)c2n1`, the EC50 is > 35 µM (inactive).
Turning to `CCN(CC)c1ccc(NC(=O)Cn2nnc(-c3cccc(OC)c3OC)n2)c(C)c1`, the EC50 is > 35 µM (inactive).
The result for `Cc1occc1C(=O)N/N=C/c1c(O)ccc2ccccc12` reads 11.7 µM; that for `O=C(NCc1ccc(F)cc1)C1CCN(S(=O)(=O)N2CCOCC2)CC1`, > 35 µM (inactive).
As for `O=C(CNC(=O)c1ccccc1Br)N/N=C/c1cc(Br)ccc1O`, the figure is 6.52 µM; as for `FC(F)(F)c1ccc(CSc2ccccn2)cc1`, > 35 µM (inactive).
For `COc1ccc2c(c1)-c1nc(NC(=O)c3ccco3)sc1CC2`, the EC50 is > 35 µM (inactive).
As for `Cc1ccc(CN2[C@@H](CC(C)C)COCCS2(=O)=O)cc1`, the EC50 was > 35 µM (inactive).
The result for `Cc1ccc2nc(N3CCN(C)CC3)[nH]c2c1` reads > 35 µM (inactive).
Regarding `COc1ccc(CC(NC(C)=O)C(=O)NC2CCN(C(=O)Nc3ccc(Cl)cc3)CC2)cc1OC` (stereo unspecified), the EC50 was > 35 µM (inactive).
Regarding `COc1cccc(/C=N/Nc2cc(-n3nc(C)cc3-c3ccccc3)ncn2)c1O`, the concentration giving a half-maximal response (EC50) is 12.5 µM.
Regarding `Cc1ccc(C(=O)NC2CC3CCCC(C2)N3Cc2ccccc2)cc1` (stereo unspecified), the EC50 is > 35 µM (inactive).
In the case of `O=C(CN1CCCCC1)N1CCCc2ccccc21`, the EC50 is > 35 µM (inactive).
Turning to `CC1CCN(Cc2c(C(=O)N/N=C/c3cc(Cl)ccc3O)nnn2-c2nonc2N)CC1`, the EC50 was 13.9 µM.
The result for `Cc1ccc(S(=O)(=O)N2CC(C)N(C(=O)N3CCOCC3)C2C)cc1` (stereo unspecified) reads > 35 µM (inactive); that for `C/C(=N\NC(=O)Cc1ccc(Br)cc1)c1cccnc1`, > 35 µM (inactive).
As for `COc1ccc(N2CCN(S(=O)(=O)c3cc(-c4cc(C)no4)ccc3C(C)C)CC2)cc1`, the figure is > 35 µM (inactive).
